According to patent publication US20240217983A1, “GPR119 AGONISTS” (Kallyope, Inc., priority 2021, published 2024):

Target: T1, human GPR119 (hGPR119) (Homo sapiens, UniProt Q8TDV5)
T1 construct: expressed in transfected cells
T1 sequence (Q8TDV5 1-335): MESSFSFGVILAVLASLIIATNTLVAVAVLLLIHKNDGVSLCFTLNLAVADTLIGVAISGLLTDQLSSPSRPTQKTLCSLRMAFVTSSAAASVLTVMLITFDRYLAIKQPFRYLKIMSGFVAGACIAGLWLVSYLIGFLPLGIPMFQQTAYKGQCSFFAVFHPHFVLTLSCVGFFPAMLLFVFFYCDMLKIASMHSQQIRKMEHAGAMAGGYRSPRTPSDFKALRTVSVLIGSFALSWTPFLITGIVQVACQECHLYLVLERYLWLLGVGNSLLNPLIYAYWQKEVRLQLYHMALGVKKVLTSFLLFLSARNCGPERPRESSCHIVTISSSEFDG
Assay: cAMP accumulation assay (Cisbio cAMP Gs dynamic HTRF kit) in CHO-K1 cells stably expressing human GPR119
Assay type: cell-based
Settings: 4-parameter fit; for Emax: 1 h, % activity normalized to Max and Min controls; for EC50: 60 minutes at 37° C.
Outline: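 Read-out is HTRF 665/620 nm ratio after 1 h detection at ambient temperature, converted to % activity against positive and negative controls, EC50 and Max activity by 4-parameter fit. Compounds were titrated onto ~10,000 thawed hGPR119-CHO-K1 cells/well for 60 min at 37° C/5% CO2.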

Emax | EC50 | Compound
100 to 130% | ≤ 100 nM | O=C(Cc1ccc(OCCCC2CCN(c3ncc(Cl)cn3)CC2)cc1F)N1C[C@@H]2C[C@H]1CN2C[C@H](O)[C@H](O)[C@H](O)CO [Example 54, 2-(4-(3-(1-(5-chloropyrimidin-2-yl)piperidin-4-yl)propoxy)-2-fluorophenyl)-1-((1S,4S)-5-((2S,3S,4R)-2,3,4,5-tetrahydroxypentyl)-2,5-diazabicyclo[2.2.1]heptan-2-yl)ethan-1-one]
100 to 130% | ≤ 100 nM | O=C(Cc1ccc(OCCCC2CCN(c3ncc(Cl)cn3)CC2)cc1F)N1C[C@@H]2C[C@H]1CN2C[C@H](O)[C@@H](O)[C@H](O)[C@H](O)CO [Example 55, 2-(4-(3-(1-(5-chloropyrimidin-2-yl)piperidin-4-yl)propoxy)-2-fluorophenyl)-1-((1S,4S)-5-((2S,3R,4R,5R)-2,3,4,5,6-pentahydroxyhexyl)-2,5-diazabicyclo[2.2.1]heptan-2-yl)ethan-1-one]
100 to 130% | ≤ 100 nM | O=C(Cc1ccc(OCCCC2CCN(c3ncc(Cl)cn3)CC2)cc1F)N1C2CC1CN(C[C@H](O)[C@H](O)[C@H](O)CO)C2 [Example 56, 2-(4-(3-(1-(5-chloropyrimidin-2-yl)piperidin-4-yl)propoxy)-2-fluorophenyl)-1-(3-((2S,3S,4R)-2,3,4,5-tetrahydroxypentyl)-3,6-diazabicyclo[3.1.1]heptan-6-yl)ethan-1-one]
100 to 130% | ≤ 100 nM | O=C(Cc1ccc(OCCCC2CCN(c3ncc(Cl)cn3)CC2)cc1F)N1C2CC1CN(C[C@H](O)[C@@H](O)[C@H](O)[C@H](O)CO)C2 [Example 57, 2-(4-(3-(1-(5-chloropyrimidin-2-yl)piperidin-4-yl)propoxy)-2-fluorophenyl)-1-(3-((2S,3R,4R,5R)-2,3,4,5,6-pentahydroxyhexyl)-3,6-diazabicyclo[3.1.1]heptan-6-yl)ethan-1-one]
≥ 130% | ≤ 100 nM | O=C(Cc1ccc(OCCCC2CCN(c3ncc(Cl)cn3)CC2)cc1F)N1CC2(CCCN2C[C@H](O)[C@H](O)[C@H](O)CO)C1 [Example 60, 2-(4-(3-(1-(5-chloropyrimidin-2-yl)piperidin-4-yl)propoxy)-2-fluorophenyl)-1-(5-((2S,3S,4R)-2,3,4,5-tetrahydroxypentyl)-2,5-diazaspiro[3.4]octan-2-yl)ethan-1-one]
100 to 130% | ≤ 100 nM | O=C(Cc1ccc(OCCCC2CCN(c3ncc(Cl)cn3)CC2)cc1F)N1C[C@H]2CCN(C[C@H](O)[C@@H](O)[C@H](O)[C@H](O)CO)[C@H]2C1 [Example 65, 2-(4-(3-(1-(5-chloropyrimidin-2-yl)piperidin-4-yl)propoxy)-2-fluorophenyl)-1-((3aR,6aR)-1-((2S,3R,4R,5R)-2,3,4,5,6-pentahydroxyhexyl)hexahydropyrrolo[3,4-b]pyrrol-5(1H)-yl)ethan-1-one]
100 to 130% | ≤ 100 nM | O=C(Cc1ccc(OCCCC2CCN(c3ncc(Cl)cn3)CC2)cc1F)N1CCC2(CC1)CCN2C[C@H](O)[C@H](O)[C@H](O)CO [Example 67, 2-(4-(3-(1-(5-chloropyrimidin-2-yl)piperidin-4-yl)propoxy)-2-fluorophenyl)-1-(1-((2S,3S,4R)-2,3,4,5-tetrahydroxypentyl)-1,7-diazaspiro[3.5]nonan-7-yl)ethan-1-one]
100 to 130% | ≤ 100 nM | O=C(Cc1ccc(OCCCC2CCN(c3ncc(Cl)cn3)CC2)cc1F)N1CCC2(CC1)CCN2C[C@H](O)[C@@H](O)[C@H](O)[C@H](O)CO [Example 68, 2-(4-(3-(1-(5-chloropyrimidin-2-yl)piperidin-4-yl)propoxy)-2-fluorophenyl)-1-(1-((2S,3R,4R,5R)-2,3,4,5,6-pentahydroxyhexyl)-1,7-diazaspiro[3.5]nonan-7-yl)ethan-1-one]
100 to 130% | 100 to 1000 nM | O=C(Cc1ccc(OCCCC2CCN(c3ncc(Cl)cn3)CC2)cc1F)N1CCC2(CC1)CN(C[C@H](O)[C@H](O)[C@H](O)CO)C2 [Example 69, 2-(4-(3-(1-(5-chloropyrimidin-2-yl)piperidin-4-yl)propoxy)-2-fluorophenyl)-1-(2-((2S,3S,4R)-2,3,4,5-tetrahydroxypentyl)-2,7-diazaspiro[3.5]nonan-7-yl)ethan-1-one]

Continued, molecule first:

Compound | Emax | EC50
O=C(Cc1ccc(OCCCC2CCN(c3ncc(Cl)cn3)CC2)cc1F)N1CCN(C[C@H](O)[C@H](O)[C@H](O)CO)C2CC21 (stereo partly drawn) [Example 58, 2-(4-(3-(1-(5-chloropyrimidin-2-yl)piperidin-4-yl)propoxy)-2-fluorophenyl)-1-(5-((2S,3S,4R)-2,3,4,5-tetrahydroxypentyl)-2,5-diazabicyclo[4.1.0]heptan-2-yl)ethan-1-one] | 100 to 130% | ≤ 100 nM
O=C(Cc1ccc(OCCCC2CCN(c3ncc(Cl)cn3)CC2)cc1F)N1CCN(C[C@H](O)[C@@H](O)[C@H](O)[C@H](O)CO)C2CC21 (stereo partly drawn) [Example 59, 2-(4-(3-(1-(5-chloropyrimidin-2-yl)piperidin-4-yl)propoxy)-2-fluorophenyl)-1-(5-((2S,3R,4R,5R)-2,3,4,5,6-pentahydroxyhexyl)-2,5-diazabicyclo[4.1.0]heptan-2-yl)ethan-1-one] | 100 to 130% | ≤ 100 nM
O=C(Cc1ccc(OCCCC2CCN(c3ncc(Cl)cn3)CC2)cc1F)N1CC2(CCCN2C[C@H](O)[C@@H](O)[C@H](O)[C@H](O)CO)C1 [Example 61, 2-(4-(3-(1-(5-chloropyrimidin-2-yl)piperidin-4-yl)propoxy)-2-fluorophenyl)-1-(5-((2S,3R,4R,5R)-2,3,4,5,6-pentahydroxyhexyl)-2,5-diazaspiro[3.4]octan-2-yl)ethan-1-one] | ≥ 130% | ≤ 100 nM
O=C(Cc1ccc(OCCCC2CCN(c3ncc(Cl)cn3)CC2)cc1F)N1CC2(C1)N(C[C@H](O)[C@H](O)[C@H](O)CO)CC2(F)F [Example 62, 2-(4-(3-(1-(5-chloropyrimidin-2-yl)piperidin-4-yl)propoxy)-2-fluorophenyl)-1-(3,3-difluoro-1-((2S,3S,4R)-2,3,4,5-tetrahydroxypentyl)-1,6-diazaspiro[3.3]heptan-6-yl)ethan-1-one] | 100 to 130% | ≤ 100 nM
O=C(Cc1ccc(OCCCC2CCN(c3ncc(Cl)cn3)CC2)cc1F)N1CC2(C1)N(C[C@H](O)[C@@H](O)[C@H](O)[C@H](O)CO)CC2(F)F [Example 63, 2-(4-(3-(1-(5-chloropyrimidin-2-yl)piperidin-4-yl)propoxy)-2-fluorophenyl)-1-(3,3-difluoro-1-((2S,3R,4R,5R)-2,3,4,5,6-pentahydroxyhexyl)-1,6-diazaspiro[3.3]heptan-6-yl)ethan-1-one] | ≥ 130% | ≤ 100 nM
O=C(Cc1ccc(OCCCC2CCN(c3ncc(Cl)cn3)CC2)cc1F)N1C[C@H]2CCN(C[C@H](O)[C@H](O)[C@H](O)CO)[C@H]2C1 [Example 64, 2-(4-(3-(1-(5-chloropyrimidin-2-yl)piperidin-4-yl)propoxy)-2-fluorophenyl)-1-((3aR,6aR)-1-((2S,3S,4R)-2,3,4,5-tetrahydroxypentyl)hexahydropyrrolo[3,4-b]pyrrol-5(1H)-yl)ethan-1-one] | 100 to 130% | ≤ 100 nM
O=C(Cc1ccc(OCCCC2CCN(c3ncc(Cl)cn3)CC2)cc1F)N1CC2(CCN(C[C@H](O)[C@H](O)[C@H](O)CO)C2)C1 [Example 66, 2-(4-(3-(1-(5-chloropyrimidin-2-yl)piperidin-4-yl)propoxy)-2-fluorophenyl)-1-(6-((2S,3S,4R)-2,3,4,5-tetrahydroxypentyl)-2,6-diazaspiro[3.4]octan-2-yl)ethan-1-one] | 100 to 130% | ≤ 100 nM
